# Measurements from patent US6512007B1, “Use of galiella lactone” (Bayer Aktiengesellschaft, priority 2000, dated 2003).
# Key:
# Stat1 = assay: IL-6-induced tyrosine-701 phosphorylation of Stat1 in HepG2 cells, immunoprecipitation/Western blot; format: cell-based, human; conditions: HepG2, IL-6 50 ng/ml; all concentrations tested, up to 16 μg/ml, equivalent to 165 μM
# Source text: A crucial step in IL-6-dependent intracellular signal transduction is the phosphorylation of tyrosine-705 in Stat3 and tyrosine-701 in Stat1. […] However, inhibitors which inhibit the Stat3 and Stat1 phosphorylation also have crucial effects on other signal cascades, and therefore pharmaceutically usable inhibitors of IL-6-dependent gene expression should, in the concentration range in which they display their pharmacological effect, affect the Stat3 or Stat1 phosphorylation only slightly or not at all.
# Seed out HepG2 cells in Petri dishes (diameter: 10 cm) (OptiMEM medium with 10% fetal calf serum and penicillin/streptomycin (100 iu) cell density: 5×10^5 cell/ml). Incubate in a moist atmosphere with 5% CO2 at 37° C. for 24 h. Replace medium by fresh OptiMEM medium with 0.5% fetal calf serum and penicillin/streptomycin (100 iu) and incubate for a further 48 h. Replace medium by fresh OptiMEM medium with 0.5% fetal calf serum and penicillin/streptomycin (100 iu), add test substances in various concentrations, and incubate for 60 min. 5 μl of the substances dissolved in ethanol, or only ethanol (controls), were added per mixture (10 ml). Induce cells by adding IL-6 (final concentrations 50 ng/ml).
# After 20 min. remove medium and wash cell lawn twice wtih 1.5 ml of ice-cold PBS (137 mM NaCl, 2.7 mM KCl, 8.1 mM Na2HPO4×2H2O, 1.5 mM KH2PO4) each time. […]
# activated Stat3 dimers = target: T1, activated Stat3 dimers (Homo sapiens, UniProt P40763); assay: Electrophoretic mobility shift assay: DNA binding of activated Stat3 dimers to m67SIE probe; conditions: 16 ng/ml (82 nM), HepG2
# T1 construct: Probe used: m67SIE, induction time 20 minutes: cell line: HepG2; endogenous in cells; host or cells: HepG2 (cell extract)
# T1 sequence (P40763 2-770 limits assumed): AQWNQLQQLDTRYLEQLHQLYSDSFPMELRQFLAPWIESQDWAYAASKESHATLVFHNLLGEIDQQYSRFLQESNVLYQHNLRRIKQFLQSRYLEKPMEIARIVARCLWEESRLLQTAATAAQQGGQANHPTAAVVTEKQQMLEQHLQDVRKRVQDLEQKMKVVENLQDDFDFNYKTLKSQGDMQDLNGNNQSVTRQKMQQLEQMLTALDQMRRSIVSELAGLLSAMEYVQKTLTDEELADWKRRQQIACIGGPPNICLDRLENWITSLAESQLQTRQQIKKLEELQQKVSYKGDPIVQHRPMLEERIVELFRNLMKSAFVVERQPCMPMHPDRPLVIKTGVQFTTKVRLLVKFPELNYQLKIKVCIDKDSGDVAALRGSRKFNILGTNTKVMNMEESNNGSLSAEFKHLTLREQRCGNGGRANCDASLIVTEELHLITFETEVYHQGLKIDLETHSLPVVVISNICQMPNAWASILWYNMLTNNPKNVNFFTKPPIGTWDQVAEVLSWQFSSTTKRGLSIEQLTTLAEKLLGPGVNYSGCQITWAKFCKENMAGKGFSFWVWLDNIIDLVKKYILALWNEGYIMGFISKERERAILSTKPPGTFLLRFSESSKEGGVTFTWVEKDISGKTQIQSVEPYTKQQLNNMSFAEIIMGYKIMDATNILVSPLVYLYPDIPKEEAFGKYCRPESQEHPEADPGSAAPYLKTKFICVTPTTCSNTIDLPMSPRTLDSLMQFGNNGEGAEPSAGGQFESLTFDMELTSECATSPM
# Source text: The DNA binding of activated Stat3 dimers to their binding sites in the promoters of the target genes is the basic requirement for transcriptional activation of these genes. At the same time, this step is specific for Stat3, i.e. inhibition of this step would result in specific inhibition of IL-6-induced and Stat3-mediated expression of the target genes without simultaneously affecting other signal cascades. The effect of the various compounds on the DNA binding ability of the phosphorylated and thus activated Stat3 dimers was analysed by carrying out electrophoretic mobility shift assays (EMSAs, gel shift assays).
# The procedure was as described in Nature, 1993, 362: 79-83 and Mol. Cell Biol, 1998, 18: 2108-17. The DNA probe used was the ^32P-labelled, double-stranded oligonucleotide with the m67SIE recognition sequence (S2) (wild-type) (cf. EMBO J. 1995, 14: 1421-9)
# It was possible to show with control mixtures in which the induced control was preincubated with phospho-Stat3 (tyrosine 705)-specific antibodies that it is Stat3 phosphorylated on the tyrosine 705 residue which binds to the m67SIE probe (see FIG. 6).
# Effect of galiella lactone on the binding of activated Stat3 dimers to their DNA recognition sequence. Probe used: m67SIE, induction time 20 minutes: cell line: HepG2.
# Solubility in solvents = format: physicochemical
# Source text: Galiella lactone has the physical and chemical properties described hereinafter. […] It was possible with the aid of the mass spectra (Table 1) to establish firstly the molecular weight of 194 Da and then the molecular formula of C11H14O3.
compound,measurement,setting,value
C[C@H]1C=C2C(=O)O[C@H]3CC[C@@H](C1)[C@@]23O [galiella lactone],effect on the phosphorylation of Stat1,Stat1,no effect
same,binding of the activated Stat3 dimers to their recognition sequence,activated Stat3 dimers,completely inhibits
same,solubility in nonpolar solvents,"Solubility in solvents; cyclohexane, n-pentane, n-hexane",scarcely soluble
same,solubility in polar solvents,"Solubility in solvents; methanol, pyridine, ethyl acetate, acetonitrile, TBME, THF and water",readily soluble
